In test [1] the target is human CB2 cannabinoid receptor (Homo sapiens (Human), UniProt P34972). Kind of test: Radioligand binding assay, CB2 ([3H]-CP 55,940 competition). The conditions noted are these: for IC50: plasma membranes of HEK 293 EBNA cells transfected with human CB2, 0.72 nM [3H]-CP 55,940, NA = not active; for CB2 Selectivity: CB2 versus CB1 binding (ratio of CB1 IC50 to CB2 IC50). The protocol: (§1) A. Radioligand Binding Assay
(§2) Plasma membranes prepared from HEK 293 EBNA cells transfected with human CB1 or CB2 cannabinoid receptors ([…] protein, receptor concentration; PerkinElmer) were used for the radioligand binding studies. The composition of incubation buffer for CB1 assay was 50 mM Tris base, 2.5 mM EDTA, 5 mM MgCl2 and 0.5 mg/ml fatty acid free BSA and for CB2 assay was 50 mM Tris base, 2.5 mM EGTA, 5 mM MgCl2 and 1 mg/ml fatty acid free BSA; pH was adjusted to 7.4 by adding 1N HCl. Plasma membranes were diluted with incubation buffer to provide a final protein concentration of 2.4 μg (CB1) or 8 μg (CB2) per well in non-binding surface polystyrene 96-well assay plates (Corning). Compound solutions were prepared in silanized glass tubes and dispensed using pipette tips with SUPERSLIK™ surface. Competition studies were performed using a final concentration of 0.72 nM [^3H]-CP 55,940 (100-180 Ci/mmol, specific activity; PerkinElmer) against test compounds. Non-specific binding was determined using 10 uM of unlabeled CP 55,940. Incubations were performed in 96-well assay plates at a final volume of 200 ul for 90 min (CB1) or 60 min (CB2) at room temperature. Binding reactions were terminated by the addition of ice-cold incubation buffer and rapid filtration through a glass fiber filter using a cell harvester (Inotech). This was followed by 8 additional washes. The glass fiber filter (0.26 mm thickness, 1-1.5 um retention; Inotech) was presoaked in cold incubation buffer containing 0.05% polyethylenimine. The filters were oven-dried at 50° C. for 60 min and counting performed using a Beckman Coulter LS 6500 Multi-Purpose Scintillation Counter (Beckman-Coulter). Binding was determined in duplicate for at least 4 separate experiments.

The target of test [2] is human CB1 cannabinoid receptor (Homo sapiens (Human), UniProt P21554). The experiment in a line: Radioligand binding assay, CB1 ([3H]-CP 55,940 competition). To be noted: plasma membranes of HEK 293 EBNA cells transfected with human CB1; 0.72 nM [3H]-CP 55,940; NA = not active. Here is the method: as §1, §2
Chain of human CB1 cannabinoid receptor (P21554 whole entry): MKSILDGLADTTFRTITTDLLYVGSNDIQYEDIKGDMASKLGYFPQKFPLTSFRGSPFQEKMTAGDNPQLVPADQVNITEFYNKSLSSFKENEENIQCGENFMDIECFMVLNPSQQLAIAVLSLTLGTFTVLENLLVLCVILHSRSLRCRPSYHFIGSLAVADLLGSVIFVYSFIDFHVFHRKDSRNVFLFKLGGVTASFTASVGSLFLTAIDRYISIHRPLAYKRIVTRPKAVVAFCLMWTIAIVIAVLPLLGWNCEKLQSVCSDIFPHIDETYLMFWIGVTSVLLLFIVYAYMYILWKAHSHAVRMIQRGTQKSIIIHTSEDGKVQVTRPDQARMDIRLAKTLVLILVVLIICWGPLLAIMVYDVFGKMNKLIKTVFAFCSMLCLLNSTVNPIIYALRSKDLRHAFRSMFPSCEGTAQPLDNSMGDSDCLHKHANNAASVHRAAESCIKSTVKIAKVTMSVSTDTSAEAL
Test [3] concerns mouse isolated vas deferens. Kind of test: Mouse isolated vas deferens (MVD) bioassay, electrically stimulated contractions. The format is cell-based. To be noted: Mus musculus.
Where [4] appears, read: vas deferens of male Swiss Webster mice, electrically evoked contractions, NA = not active, read-out: MVD Assay EC50.

Where two headings read alike, the source gives them in different places.

Chain of human CB2 cannabinoid receptor (P34972 whole entry): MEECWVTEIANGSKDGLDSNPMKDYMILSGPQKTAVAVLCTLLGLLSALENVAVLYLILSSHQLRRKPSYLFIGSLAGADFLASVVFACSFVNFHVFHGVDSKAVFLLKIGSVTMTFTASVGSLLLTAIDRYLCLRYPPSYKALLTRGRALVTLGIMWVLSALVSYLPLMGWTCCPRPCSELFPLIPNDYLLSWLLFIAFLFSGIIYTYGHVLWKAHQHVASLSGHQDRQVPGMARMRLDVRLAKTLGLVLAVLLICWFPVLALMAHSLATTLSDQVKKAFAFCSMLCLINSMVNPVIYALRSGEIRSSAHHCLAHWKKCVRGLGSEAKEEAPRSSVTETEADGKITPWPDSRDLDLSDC

Broadly, the IC50 is the concentration needed to halve the response being measured. As a reminder, the EC50 is the concentration giving half of the maximal effect. In the case of `CCCNc1cnn(-c2cc(C)cc(C)c2)c(=O)c1Cl` [Compound 16, 4-Chloro-2-(3,5-dimethylphenyl)-5-propylaminopyridazin-3-one], the figures for the IC50 in test [1] and in test [2] were 10000 nM and more than 10000 nM, respectively. Also, the EC50 in test [3] (setting [4]) was more than 10000 nM.

For `Cc1cc(C)cc(-n2ncc(NCCN3CCOCC3)c(Cl)c2=O)c1` [Compound 18, 4-Chloro-2-(3,5-dimethylphenyl)-5-(2-morpholin-4-ylethylamino)-pyridazin-3-one], the IC50 in test [1] and in test [2] was more than 10000 nM each time. In addition, the EC50 in test [3] (setting [4]) was approximately 10000 nM.

Take `CCCNc1cnn(-c2cc(C(F)(F)F)cc(C(F)(F)F)c2)c(=O)c1Cl` [Compound 20, 2-(3,5-Bistrifluoromethylphenyl)-4-chloro-5-propylamino-pyridazin-3-one]: the IC50 in test [1] and in test [2] was more than 10000 nM in each case. In test [3] (setting [4]), the EC50 was more than 10000 nM.

`CCCNc1cnn(-c2cc(Cl)cc(Cl)c2)c(=O)c1Cl` [Compound 25, 4-Chloro-2-(3,5-dichlorophenyl)-5-propylaminopyridazin-3-one]: the IC50 in test [1] and in test [2] was more than 10000 nM in each case. Besides, in test [3] (setting [4]), the concentration giving a half-maximal response (EC50) was more than 10000 nM.

For the compound `CN(C)CCN(C)c1cnn(C2CC(C)(C)CC(C)(C)C2)c(=O)c1Cl` [Compound 31, 4-Chloro-5-(2-dimethylaminoethylmethylamino)-2-(3,3,5,5-tetramethyl-cyclohexyl)pyridazin-3-one], the “CB2 Selectivity” value in test [1] is 132. In addition, the figures for the IC50 in test [1] and in test [2] were 20 nM and 2630 nM, respectively. Moreover, the EC50 in test [3] (setting [4]) amounted to 330 nM.

`CCCn1ncc2c(=O)n(C3CC(C)(C)CC(C)(C)C3)ncc21` [Compound 34, 1-Propyl-5-(3,3,5,5-tetramethyl-cyclohexyl)pyrazolo[3,4-d]pyridazin-4-one]: the “CB2 Selectivity” value in test [1] worked out at 15. The IC50 in test [1] was found to be 17 nM; in test [2], 257 nM. Also, in test [3] (read-out: MVD Assay EC50 (nM)), the EC50 is 21 nM.

For `CCCn1cc2c(=O)n(C3CC(C)(C)CC(C)(C)C3)ncc2n1` [Compound 35, 2-Propyl-5-(3,3,5,5-tetramethylcyclohexyl)pyrazolo[3,4-d]pyridazin-4-one], in test [1], the “CB2 Selectivity” value is recorded as more than 42 and the IC50 was found to be 240 nM. This compound also came in with an IC50 in test [2] of more than 10000 nM. Besides, the EC50 in test [3] (read-out: MVD Assay EC50 (nM)) was found to be 1200 nM.

In the case of `CC1(C)CC(n2ncc3c(cnn3CCN3CCOCC3)c2=O)CC(C)(C)C1` [Compound 36, 1-(2-Morpholin-4-ylethyl)-5-(3,3,5,5-tetramethylcyclohexyl)pyrazolo[3,4-d]pyridazin-4-one], in test [1], the “CB2 Selectivity” value is reported as 26 and the IC50 came out at 8.5 nM. In addition, the IC50 in test [2] worked out at 219 nM. Also, the concentration giving a half-maximal response (EC50) in test [3] (setting [4]) stood at 33 nM.

Consider `CC1(C)CC(n2ncc3nn(CCN4CCOCC4)cc3c2=O)CC(C)(C)C1` [Compound 37, 2-(2-Morpholin-4-ylethyl)-5-(3,3,5,5-tetramethylcyclohexyl)pyrazolo[3,4-d]pyridazin-4-one], for which, in test [1], the “CB2 Selectivity” value was more than 7 and the IC50 is 1510 nM. In addition, in test [2], the IC50 is more than 10000 nM. Also, in test [3] (read-out: MVD Assay EC50 (nM)), the EC50 turned out to be 1400 nM.

With `CN(C)CCn1ncc2c(=O)n(C3CC(C)(C)CC(C)(C)C3)ncc21` [Compound 38, 1-(2-Dimethylaminoethyl)-5-(3,3,5,5-tetramethylcyclohexyl)pyrazolo[3,4-d]pyridazin-4-one], in test [1], the “CB2 Selectivity” value is 38. Moreover, the IC50 is 105 nM in test [1] and 3980 nM in test [2]. Further, the EC50 in test [3] (setting [4]) amounted to 130 nM.
